Data as given in patent US9670161B2, “5-fluoro-N-(pyridin-2-yl)pyridin-2-amine derivatives containing a sulfone group” (BAYER PHARMA AKTIENGESELLSCHAFT, priority 2012, dated 2017).

Columns and labels:
CDK9/CycT1 = CDK9/CycT1 (Homo sapiens (Human), UniProt P50750); assay: CDK9/CycT1 high ATP kinase assay (TR-FRET, 2 mM ATP); type: biochemical; settings: Method 1b
Procedure: 1b. CDK9/CycT1 High ATP Kinase Assay
CDK9/CycT1-inhibitory activity of compounds of the present invention at a high ATP concentration after preincubation of enzyme and test compounds was quantified employing the CDK9/CycT1 TR-FRET assay as described in the following paragraphs.
Recombinant full-length His-tagged human CDK9 and CycT1, expressed in insect cells and purified by Ni-NTA affinity chromatography, were purchase from Invitrogen (Cat. No PV4131). As substrate for the kinase reaction biotinylated peptide biotin-Ttds-YISPLKSPYKISEG (C-terminus in amid form) was used which can be purchased e.g. form the company JERINI peptide technologies (Berlin, Germany).
(§1) For the assay 50 nl of a 100 fold concentrated solution of the test compound in DMSO was pipetted into a black low volume 384 well microtiter plate (Greiner Bio-One, Frickenhausen, Germany), 2 μl of a solution of CDK9/CycT1 in aqueous assay buffer [50 mM Tris/HCl pH 8.0, 10 mM MgCl2, 1.0 mM dithiothreitol, 0.1 mM sodium ortho-vanadate, 0.01% (v/v) Nonidet-P40 (Sigma)] were added and the mixture was incubated for 15 min at 22° C. to allow pre-binding of the test compounds to the enzyme before the start of the kinase reaction. Then the kinase reaction was started by the addition of 3 μl of a solution of adenosine-tri-phosphate (ATP, 3.3 mM=>final conc. in the 5 μl assay volume is 2 mM) and substrate (1.67 μM=>final conc. in the 5 μl assay volume is 1 μM) in assay buffer and the resulting mixture was incubated for a reaction time of 25 min at 22° C. The concentration of CDK9/CycT1 was adjusted depending of the activity of the enzyme lot and was chosen appropriate to have the assay in the linear range, typical concentrations were in the range of 0.5 μg/mL. The reaction was stopped by the addition of 5 μl of a solution of TR-FRET detection reagents (0.2 μM streptavidine-XL665 [Cisbio Bioassays, Codolet, France] and 1 nM anti-RB(pSer807/pSer811)-antibody from BD Pharmingen [#558389] and 1.2 nM LANCE EU-W1024 labeled anti-mouse IgG antibody [Perkin-Elmer, product no. AD0077]) in an aqueous EDTA-solution (100 mM EDTA, 0.2% (w/v) bovine serum albumin in 100 mM HEPES/NaOH pH 7.0).
(§2) The resulting mixture was incubated 1 h at 22° C. to allow the formation of complex between the phosphorylated biotinylated peptide and the detection reagents. Subsequently the amount of phosphorylated substrate was evaluated by measurement of the resonance energy transfer from the Eu-chelate to the streptavidine-XL. Therefore, the fluorescence emissions at 620 nm and 665 nm after excitation at 350 nm was measured in a HTRF reader, e.g. a Rubystar (BMG Labtechnologies, Offenburg, Germany) or a Viewlux (Perkin-Elmer). The ratio of the emissions at 665 nm and at […] was taken as the measure for the amount of phosphorylated substrate. The data were normalised (enzyme reaction without inhibitor=0% inhibition, all other assay components but no enzyme=100% inhibition).

CDK2/CycE = CDK2/CycE (Homo sapiens (Human), UniProt P24941); assay: CDK2/CycE kinase assay (TR-FRET, 10 μM ATP); type: biochemical; settings: Method 2a
Description: 2a. CDK2/CycE Kinase Assay:
CDK2/CycE-inhibitory activity of compounds of the present invention was quantified employing the CDK2/CycE TR-FRET assay as described in the following paragraphs:
Recombinant fusion proteins of GST and human CDK2 and of GST and human CycE, expressed in insect cells (Sf9) and purified by Glutathion-Sepharose affinity chromatography, were purchased from ProQinase GmbH (Freiburg, Germany). As substrate for the kinase reaction biotinylated peptide biotin-Ttds-YISPLKSPYKISEG (C-terminus in amid form) was used which can be purchased e.g. form the company JERINI Peptide Technologies (Berlin, Germany).
as §1, with “of CDK2/CycE” for “of CDK9/CycT1”, “(ATP, 16.7” for “(ATP, 3.3 mM=>final conc. in the 5 μl assay volume is 2 mM) and substrate (1.67”, “is 10 μM) and substrate (1.25 μM=>final conc. in the 5 μl assay volume is 0.75” for “is 1”, “of 130 ng/mL.” for “of 0.5 μg/mL.”
as §2, with “TR-FRET” for “HTRF”

CDK9/CycT1, sequence (P50750 whole entry): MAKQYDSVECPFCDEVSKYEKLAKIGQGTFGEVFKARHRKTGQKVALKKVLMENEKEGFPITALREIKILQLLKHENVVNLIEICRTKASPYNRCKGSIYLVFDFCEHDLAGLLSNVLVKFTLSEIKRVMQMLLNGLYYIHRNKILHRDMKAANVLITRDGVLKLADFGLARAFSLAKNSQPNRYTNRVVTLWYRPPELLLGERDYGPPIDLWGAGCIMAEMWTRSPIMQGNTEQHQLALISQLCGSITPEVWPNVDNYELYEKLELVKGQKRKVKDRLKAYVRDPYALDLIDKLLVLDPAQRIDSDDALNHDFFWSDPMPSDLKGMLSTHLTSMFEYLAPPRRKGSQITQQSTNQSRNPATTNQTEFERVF
CDK9/CycT1, sequence (O60563 whole entry partner): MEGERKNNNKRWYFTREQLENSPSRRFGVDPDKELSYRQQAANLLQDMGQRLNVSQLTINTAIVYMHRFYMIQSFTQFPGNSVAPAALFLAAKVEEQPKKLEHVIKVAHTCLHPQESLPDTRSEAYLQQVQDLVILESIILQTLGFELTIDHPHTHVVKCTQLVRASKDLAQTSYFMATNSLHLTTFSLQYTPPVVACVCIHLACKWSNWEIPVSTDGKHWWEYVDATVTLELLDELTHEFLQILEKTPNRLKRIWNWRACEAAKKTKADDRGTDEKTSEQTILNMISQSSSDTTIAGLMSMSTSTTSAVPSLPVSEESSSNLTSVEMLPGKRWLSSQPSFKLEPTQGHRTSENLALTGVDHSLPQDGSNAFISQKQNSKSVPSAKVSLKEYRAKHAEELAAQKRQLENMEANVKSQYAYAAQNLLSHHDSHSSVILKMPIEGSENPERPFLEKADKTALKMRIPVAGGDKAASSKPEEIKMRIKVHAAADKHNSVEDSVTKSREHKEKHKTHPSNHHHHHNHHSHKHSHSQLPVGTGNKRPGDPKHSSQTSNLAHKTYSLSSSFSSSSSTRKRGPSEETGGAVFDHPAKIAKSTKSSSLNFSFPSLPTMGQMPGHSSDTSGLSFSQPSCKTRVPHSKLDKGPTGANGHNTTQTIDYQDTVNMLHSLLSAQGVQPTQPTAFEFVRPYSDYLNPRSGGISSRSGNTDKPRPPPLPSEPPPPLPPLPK

Structure (SMILES) | IC50 (CDK9/CycT1) [nM] | IC50 (CDK2/CycE) [nM]
COc1cc(F)ccc1-c1cc(Nc2cc(CS(C)(=O)=O)ccn2)ncc1F [Example 1, 5-Fluoro-4-(4-fluoro-2-methoxyphenyl)-N-{4-[(methylsulfonyl)methyl]pyridin-2-yl}pyridin-2-amine] | 2 | 170
COc1cc(F)ccc1-c1cc(Nc2cc(CS(C)(=O)=O)cc(C)n2)ncc1F [Example 2, 5-Fluoro-4-(4-fluoro-2-methoxyphenyl)-N-{6-methyl-4-[(methylsulfonyl)methyl]pyridin-2-yl}pyridin-2-amine] | 2 | 70
COc1cc(F)ccc1-c1cc(Nc2cc(CS(C)(=O)=O)cc(F)n2)ncc1F [Example 3, 5-Fluoro-4-(4-fluoro-2-methoxyphenyl)-N-{6-fluoro-4-[(methylsulfonyl)methyl]pyridin-2-yl}pyridin-2-amine] | 2 | 65
COc1cc(F)ccc1-c1cc(Nc2cc(CS(C)(=O)=O)cc(C(F)(F)F)n2)ncc1F [Example 4, 5-Fluoro-4-(4-fluoro-2-methoxyphenyl)-N-{4-[(methylsulfonyl)methyl]-6-(trifluoromethyl)pyridin-2-yl}pyridin-2-amine] | 3 | 52
COc1cc(F)ccc1-c1cc(Nc2cc(CS(C)(=O)=O)cc(C(F)F)n2)ncc1F [Example 5, N-{6-(Difluoromethyl)-4-[(methylsulfonyl)methyl]pyridin-2-yl}-5-fluoro-4-(4-fluoro-2-methoxyphenyl)pyridin-2-amine] | 1 | 7
